Test results: patent US12479830B2, “Homopiperazinyl and homopiperidinyl quinazolin-4(3H)-one derivatives having multimodal activity against pain” (ESTEVE PHARMACEUTICALS, S.A., priority 2019, dated 2025)

Key:
[1] = target: Human α2δ-1 subunit of Cav2.2 calcium channel (Homo sapiens, UniProt P54289); test: Human α2δ-1 subunit of Cav2.2 calcium channel assay ([3H]-gabapentin binding); conditions: binding to the α2δ-1 subunit of voltage-gated calcium channels, expressed as Ki class; + also covers inhibition between 1% and 50%
Summary of the method: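 Human α2δ-1 enriched membranes (2.5 μg) incubated 60 min at 27° C. with 15 nM [3H]-gabapentin in 10 mM Hepes-KOH pH 7.4; non-specific binding with 10 μM pregabalin. Filtration binding; % inhibition at 1 or 10 μM, or Ki from five concentrations.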

[2] = target: T1, Human σ1 receptor (Homo sapiens, UniProt Q99720); test: Human σ1 receptor radioligand assay ([3H](+)-pentazocine binding); conditions: binding to the σ1 receptor, expressed as Ki class; + also covers inhibition between 1% and 50%
T1 construct: expressed in transfected cells; host or cells: HEK-293
Summary of the method: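 Membranes (7 μg) were incubated with 5 nM [3H](+)-pentazocine in 50 mM Tris-HCl pH 8 for 120 min at 37° C. Non-specific binding was defined with 10 μM haloperidol. Values are % inhibition at 1 or 10 μM or Ki from five concentrations, read by filtration and scintillation counting.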

T1 sequence (Q99720 whole entry): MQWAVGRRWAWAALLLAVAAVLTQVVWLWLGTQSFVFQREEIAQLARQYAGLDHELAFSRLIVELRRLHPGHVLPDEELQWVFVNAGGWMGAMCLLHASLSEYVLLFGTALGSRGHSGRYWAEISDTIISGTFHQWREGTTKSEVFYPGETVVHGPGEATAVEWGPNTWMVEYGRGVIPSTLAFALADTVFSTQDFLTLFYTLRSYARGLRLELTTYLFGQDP
Sequence of Human α2δ-1 subunit of Cav2.2 calcium channel (P54289 25-1103): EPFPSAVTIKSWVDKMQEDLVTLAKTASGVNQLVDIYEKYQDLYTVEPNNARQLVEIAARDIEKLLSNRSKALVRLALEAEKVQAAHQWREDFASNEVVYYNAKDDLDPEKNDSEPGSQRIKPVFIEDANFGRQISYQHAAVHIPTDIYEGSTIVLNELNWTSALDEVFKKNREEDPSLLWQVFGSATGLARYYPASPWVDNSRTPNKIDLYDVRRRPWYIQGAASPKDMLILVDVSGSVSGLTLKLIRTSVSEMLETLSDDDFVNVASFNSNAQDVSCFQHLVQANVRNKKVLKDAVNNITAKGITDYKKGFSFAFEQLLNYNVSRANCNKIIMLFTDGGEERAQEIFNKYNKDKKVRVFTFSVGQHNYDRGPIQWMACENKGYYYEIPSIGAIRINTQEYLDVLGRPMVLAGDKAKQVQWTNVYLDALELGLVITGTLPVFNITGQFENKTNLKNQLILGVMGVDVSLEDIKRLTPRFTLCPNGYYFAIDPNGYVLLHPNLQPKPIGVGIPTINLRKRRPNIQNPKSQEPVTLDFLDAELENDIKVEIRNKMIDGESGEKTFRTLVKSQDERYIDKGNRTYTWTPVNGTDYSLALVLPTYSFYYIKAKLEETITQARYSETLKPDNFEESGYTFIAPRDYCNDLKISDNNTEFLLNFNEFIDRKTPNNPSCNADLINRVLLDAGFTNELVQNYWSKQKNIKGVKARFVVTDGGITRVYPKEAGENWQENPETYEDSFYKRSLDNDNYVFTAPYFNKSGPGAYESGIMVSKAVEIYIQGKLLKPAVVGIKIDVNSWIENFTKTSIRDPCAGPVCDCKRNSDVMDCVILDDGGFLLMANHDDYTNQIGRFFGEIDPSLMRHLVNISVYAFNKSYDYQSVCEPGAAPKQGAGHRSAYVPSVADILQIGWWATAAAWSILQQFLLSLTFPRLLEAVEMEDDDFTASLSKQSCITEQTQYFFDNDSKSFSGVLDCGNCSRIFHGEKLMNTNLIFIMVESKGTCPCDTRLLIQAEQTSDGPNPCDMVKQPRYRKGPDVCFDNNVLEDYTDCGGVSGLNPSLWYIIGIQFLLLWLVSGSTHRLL

## CCC[C@@H](c1nc2ccc(Br)cc2c(=O)n1CC)N1CCNC[C@@H](O)C1 [Example 113, 6-Bromo-3-ethyl-2-((S)-1-((R)-6-hydroxy-1,4-diazepan-1-yl)butyl)quinazolin-4(3H)-one]
[1]
  Ki: > 5 µM
[2]
  Ki: > 1 µM

## CCC[C@H](c1nc2ccc(Br)cc2c(=O)n1CC)N1CCNC[C@@H](O)C1 [Example 114, 6-bromo-3-ethyl-2-((R)-1-((R)-6-hydroxy-1,4-diazepan-1-yl)butyl)quinazolin-4(3H)-one]
[1]
  Ki: < 0.5 µM
[2]
  Ki: > 1 µM

## CCC[C@@H](c1nc2ccc(Br)cc2c(=O)n1CC)N1CCNC[C@H](O)C1 [Example 115, 6-bromo-3-ethyl-2-((S)-1-((S)-6-hydroxy-1,4-diazepan-1-yl)butyl)quinazolin-4(3H)-one]
[1]
  Ki: > 5 µM
[2]
  Ki: > 1 µM

## CCC[C@H](c1nc2ccc(Br)cc2c(=O)n1CC)N1CCNC[C@H](O)C1 [Example 116, 6-bromo-3-ethyl-2-((R)-1-((S)-6-hydroxy-1,4-diazepan-1-yl)butyl)quinazolin-4(3H)-one]
[1]
  Ki: < 0.5 µM
[2]
  Ki: > 1 µM

## CCCC(c1nc2c(F)cc(OC)cc2c(=O)n1CC)N1CCCN(C)CC1 (centres unmarked) [Example 117, 3-ethyl-8-fluoro-6-methoxy-2-(1-(4-methyl-1,4-diazepan-1-yl)butyl)quinazolin-4(3H)-one]
[1]
  Ki: 0.5 to 5 µM
[2]
  Ki: 0.5 to 1 µM

## CCC[C@H](c1nc2cc(F)c(Cl)cc2c(=O)n1CC)N1CCNC[C@H](C)C1 [Example 118, 6-Chloro-3-ethyl-7-fluoro-2-((R)-1-((S)-6-methyl-1,4-diazepan-1-yl)butyl)quinazolin-4(3H)-one]
[1]
  Ki: < 0.5 µM
[2]
  Ki: 0.5 to 1 µM

## CCC[C@H](c1nc2cc(F)c(Cl)cc2c(=O)n1CC)N1CCNC[C@@H](C)C1 [Example 119, 6-chloro-3-ethyl-7-fluoro-2-((R)-1-((R)-6-methyl-1,4-diazepan-1-yl)butyl)quinazolin-4(3H)-one]
[1]
  Ki: < 0.5 µM
[2]
  Ki: 0.5 to 1 µM

## CCC[C@@H](c1nc2cc(F)c(Cl)cc2c(=O)n1CC)N1CCNC[C@H](C)C1 [Example 120, 6-chloro-3-ethyl-7-fluoro-2-((S)-1-((S)-6-methyl-1,4-diazepan-1-yl)butyl)quinazolin-4(3H)-one]
[1]
  Ki: > 5 µM
[2]
  Ki: > 1 µM

## CCC[C@@H](c1nc2cc(F)c(Cl)cc2c(=O)n1CC)N1CCNC[C@@H](C)C1 [Example 121, 6-chloro-3-ethyl-7-fluoro-2-((S)-1-((R)-6-methyl-1,4-diazepan-1-yl)butyl)quinazolin-4 (3H)-one]
[1]
  Ki: > 5 µM
[2]
  Ki: > 1 µM

## CCCC(c1nc2ccc(Br)cc2c(=O)[nH]1)N1CCCN(C)CC1 (centres unmarked) [Example 122, 6-bromo-2-(1-(4-methyl-1,4-diazepan-1-yl)butyl)quinazolin-4(3H)-one]
[1]
  Ki: > 5 µM
[2]
  Ki: 0.5 to 1 µM

## CCC[C@H](c1nc2ccc(Br)cc2c(=O)n1CC)N1CCN(C)C[C@H](CO)C1 [Example 123, 6-Bromo-3-ethyl-2-((R)-1-((S)-6-(hydroxymethyl)-4-methyl-1,4-diazepan-1-yl)butyl)quinazolin-4(3H)-one]
[1]
  Ki: < 0.5 µM
[2]
  Ki: 0.5 to 1 µM

## CCC[C@@H](c1nc2ccc(Br)cc2c(=O)n1CC)N1CCN(C)C[C@@H](CO)C1 [Example 124, 6-bromo-3-ethyl-2-((S)-1-((R)-6-(hydroxymethyl)-4-methyl-1,4-diazepan-1-yl)butyl)quinazolin-4(3H)-one]
[1]
  Ki: 0.5 to 5 µM
[2]
  Ki: > 1 µM

## CCC[C@H](c1nc2ccc(Br)cc2c(=O)n1CC)N1CCN(C)C[C@@H](CO)C1 [Example 125, 6-bromo-3-ethyl-2-((R)-1-((R)-6-(hydroxymethyl)-4-methyl-1,4-diazepan-1-yl)butyl)quinazolin-4(3H)-one]
[1]
  Ki: 0.5 to 5 µM
[2]
  Ki: 0.5 to 1 µM

## CCC[C@@H](c1nc2ccc(Br)cc2c(=O)n1CC)N1CCN(C)C[C@H](CO)C1 [Example 126, 6-bromo-3-ethyl-2-((S)-1-((S)-6-(hydroxymethyl)-4-methyl-1,4-diazepan-1-yl)butyl)quinazolin-4(3H)-one]
[1]
  Ki: 0.5 to 5 µM
[2]
  Ki: 0.5 to 1 µM

## CCC[C@H](c1nc2cc(F)c(Br)cc2c(=O)n1CC)N1CCN(C)C[C@H](C)C1 [Example 127, 6-Bromo-2-((R)-1-((S)-4,6-dimethyl-1,4-diazepan-1-yl)butyl)-3-ethyl-7-fluoroquinazolin-4(3H)-one]
[1]
  Ki: < 0.5 µM
[2]
  Ki: 0.5 to 1 µM

## CCC[C@@H](c1nc2cc(F)c(Br)cc2c(=O)n1CC)N1CCN(C)C[C@H](C)C1 [Example 128, 6-bromo-2-((S)-1-((S)-4,6-dimethyl-1,4-diazepan-1-yl)butyl)-3-ethyl-7-fluoroquinazolin-4(3H)-one]
[1]
  Ki: > 5 µM
[2]
  Ki: > 1 µM

## CCC[C@@H](c1nc2cc(F)c(Br)cc2c(=O)n1CC)N1CCN(C)C[C@@H](C)C1 [Example 129, 6-bromo-2-((S)-1-((R)-4,6-dimethyl-1,4-diazepan-1-yl)butyl)-3-ethyl-7-fluoroquinazolin-4(3H)-one]
[1]
  Ki: 0.5 to 5 µM
[2]
  Ki: > 1 µM

## CCC[C@H](c1nc2cc(F)c(Br)cc2c(=O)n1CC)N1CCN(C)C[C@@H](C)C1 [Example 130, 6-bromo-2-((R)-1-((R)-4,6-dimethyl-1,4-diazepan-1-yl)butyl)-3-ethyl-7-fluoroquinazolin-4 (3H)-one]
[1]
  Ki: < 0.5 µM
[2]
  Ki: 0.5 to 1 µM

## CCC[C@H](c1nc2cc(Cl)c(Cl)cc2c(=O)n1CC)N1CCN(C)C[C@H](C)C1 [Example 131, 6,7-Dichloro-2-((R)-1-((S)-4,6-dimethyl-1,4-diazepan-1-yl)butyl)-3-ethylquinazolin-4(3H)-one]
[1]
  Ki: < 0.5 µM
[2]
  Ki: < 0.5 µM

## CCC[C@H](c1nc2cc(Cl)c(Cl)cc2c(=O)n1CC)N1CCN(C)C[C@@H](C)C1 [Example 132, 6,7-dichloro-2-((R)-1-((R)-4,6-dimethyl-1,4-diazepan-1-yl)butyl)-3-ethylquinazolin-4(3H)-one]
[1]
  Ki: < 0.5 µM
[2]
  Ki: < 0.5 µM

## CCC[C@@H](c1nc2cc(Cl)c(Cl)cc2c(=O)n1CC)N1CCN(C)C[C@H](C)C1 [Example 133, 6,7-dichloro-2-((S)-1-((S)-4,6-dimethyl-1,4-diazepan-1-yl)butyl)-3-ethylquinazolin-4(3H)-one]
[1]
  Ki: > 5 µM
[2]
  Ki: > 1 µM

## CCC[C@@H](c1nc2cc(Cl)c(Cl)cc2c(=O)n1CC)N1CCN(C)C[C@@H](C)C1 [Example 134, 6,7-dichloro-2-((S)-1-((R)-4,6-dimethyl-1,4-diazepan-1-yl)butyl)-3-ethylquinazolin-4(3H)-one]
[1]
  Ki: > 5 µM
[2]
  Ki: 0.5 to 1 µM

## CCC[C@H](c1nc2cc(F)c(Cl)cc2c(=O)n1CC)N1CCN(C)C[C@H](C)C1 [Example 135, 6-Chloro-2-((R)-1-((S)-4,6-dimethyl-1,4-diazepan-1-yl)butyl)-3-ethyl-7-fluoroquinazolin-4(3H)-one]
[1]
  Ki: < 0.5 µM
[2]
  Ki: < 0.5 µM

## CCC[C@H](c1nc2cc(F)c(Cl)cc2c(=O)n1CC)N1CCN(C)C[C@@H](C)C1 [Example 136, 6-chloro-2-((R)-1-((R)-4,6-dimethyl-1,4-diazepan-1-yl)butyl)-3-ethyl-7-fluoroquinazolin-4(3H)-one]
[1]
  Ki: < 0.5 µM
[2]
  Ki: 0.5 to 1 µM

## CCC[C@@H](c1nc2cc(F)c(Cl)cc2c(=O)n1CC)N1CCN(C)C[C@H](C)C1 [Example 137, 6-chloro-2-((S)-1-((S)-4,6-dimethyl-1,4-diazepan-1-yl)butyl)-3-ethyl-7-fluoroquinazolin-4(3H)-one]
[1]
  Ki: > 5 µM
[2]
  Ki: 0.5 to 1 µM
